In US7374890B2, “Methods for identifying compounds that modulate ΔTRα2 activity” (University of Massachusetts, priority 2000, dated 2008):

Tests used:
[1] = system: cerebellar granule neurons; experiment: release of FM1-43-loaded synaptic vesicles from cerebellar granule neurons under continuous stimulus; format: cell-based, rat
Protocol: Granule neurons were grown for 7 days and rendered hormone free by growth in serum-free medium as detailed above. Coverslips were then placed in a perfusion chamber, mounted on the stage of a laser scanning confocal microscope and perfused at 1 ml/min at 25° C. with perfusion buffer (119 mM NaCl, 2.5 mM KCl, 2 mM CaCl2, 2 mM MgCl2, 25 mM HEPES (pH 7.4), 30 mM glucose, and […] AP-5). The effects of different hormones on synaptic vesicle trafficking were then determined. […] Depolarizing KCl was then removed from the perfusion buffer and the cells were exposed to FM1-43 for an additional 30 seconds to insure complete loading of recycling synaptic vesicles. Loaded cells were then washed free of dye and the cells were perfused for ten minutes at rest.
Images of a single field of neuronal fibers were then taken immediately before adding a second depolarizing solution (perfusion buffer containing 50 mM KCl) and at one and two minutes after beginning the continuous stimulation by 50 mM KCl. Thirty to forty-five individual FM1-43 labeled nerve terminals were identified in the baseline images (taken prior to depolarization) and the change in fluorescence (DF) for each nerve terminal determined at the one and two minute time points. FIGS. 11A and 11B show the results of analysis of the hormone specificity of synaptic vesicle trafficking (FIG. 11A) and the influence of individual myo5a mutants (FIG. 11B) on synaptic vesicle transport in granule neurons.
To evaluate the role of myo5a in synaptic vesicle transport, three different myo5a constructs were introduced into the neurons by replication-deficient adenoviral vectors (Δmyo5a^tail(MyoV^tail), Δmyo5a^c-term(MyoV^1830)and ΔMyo5a^CC(MyoV^cc) see FIG. 5) as described above. […] Neurons were infected with purified Ad5-constructs (MOI=10) 48 hours prior to the synaptic vesicle trafficking study, and allowed to recover in hormone (T4) supplemented medium. […] This modest influence of the VBD mutant on synaptic vesicle retention is likely to be due to the loss of the kinesin-binding domain that limits its delivery to nerve terminals.

[2] = system: binding of p29^GFP vesicles to F-actin; experiment: modified in vitro actin binding assay with p29^GFP-labeled vesicles; format: biochemical, rat; details: for competition with native myosin V for T4-dependent binding of p29 to F-actin: ~2-3 pmol polypeptide/50 μl mixture, 10 nM T4
Protocol: To define the specific region(s) of the myosin V tail that interact with the p29 vesicle, a series of deletion mutations were created based on the dominant negative effect of exogenous myosin V tail on p29 vesicle binding. Competition analysis of the myosin V deletion mutations on T4-dependent binding of p29 vesicles to F-actin was performed using a modified in vitro assay in which a GFP-tagged p29 fusion protein (p29^GFP) replaced the radioaffinity labeled native p29 (Farwell et al., 1990, J. Biol. Chem. 265:18546-18553; Farwell et al., 1993, J. Biol. Chem. 268:5055-5062). This allowed direct evaluation of the binding of fluorescent vesicles to F-actin without affinity radiolabeling of the p29 and subsequent SDS-PAGE analysis.
Specific fluorescence at 510 nm (excitation, 488 nm) was then determined in the resuspended Triton-insoluble pellets.
To determine if the myosin V tail could be captured by the p29^GFP vesicle, an exogenous myosin V^tail was introduced into astrocytes constitutively expressing p29^GFP by infection with Ad5-ΔMyo V^tail virus particles and examined the effects of T4 on the binding of the myosin V^tail to immunopurified p29^GFP vesicles. Astrocytes expressing p29^GFP were grown in serum-free media and treated for 16 hours with 1 mM bt2cAMP and 100 nM hydrocortisone. A separate pool of astrocytes was treated in serum-free media supplemented with 10 μM retinoic acid. Cells were collected by scraping, and lysed by two freeze-thaw cycles. […] Triton-soluble (vesicle) and Triton-insoluble (F-actin) fractions were separated by microflige centrifugation. Triton pellets were resuspended in 300 μl of PBS and fluorescence at 510 nm (excitation 488 nm) determined and relative fluorescence was reported as arbitrary units. Cells were treated with 10 nM T4 for twenty minutes and a Triton-soluble supernatant was prepared. Vesicles containing the p29^GFP were immunoprecipitated by anti-GFP IgG (2 μg/ml) and protein in the immunoprecipitates were resolved by SDS-PAGE. Immunoblot analysis of vesicle-associated myosin V was performed using the anti-myosin V antibody directed against the C-terminus.
The quantity of each mutant protein synthesized was determined by [^35 S]-methionine incorporation. Astrocytes expressing p29^GFP were grown in serum-free media and treated for 16 hours with […] bt2cAMP and 100 nM hydrocortisone. p29^GFP V-lysate and F-lysate were prepared as described herein. 100 μg aliquots of p29^GFP V-lysate and F-lysate were pre-incubated, in triplicate, for 20 minutes at 37° C. in the presence of individual Δ myosin V mutant proteins (˜2-3 pmol polypeptide/50 μl mixture) were added to the actin-binding assay and pre-incubated for 20 minutes at 37° C. T4 (10 nM) was then added, the mixtures incubated for 20 minutes at 37° C., and F-actin bound, fluorescent p29^GFP vesicles were then isolated in the Triton-insoluble pellet.
V lysates prepared from astrocytes over-expressing p29^GFP were pre-incubated for 30 minutes at room temperature with antisera raised against ΔTRα2, ΔTRα1, the C-terminus of MyoV (encoded by MyoV^tail, FIG. 5), the coiled-coil region of MyoV (encoded by MyoV^coil-coil, FIG. 5) and GFP (green fluorescent protein). T4 (10 nM) and actin fiber-containing F-lysate was then added, the mixtures incubated at 37° C. for 20 minutes, and the Triton-insoluble fraction isolated by centrifugation.

[3] = system: cerebellar granule neurons; experiment: FM1-43 synaptic vesicle recycling in cultured cerebellar granule neurons, spontaneous activity; format: cell-based, rat
Protocol: All of the major components of hormone-induced vesicle trafficking in astrocytes (actin fibers, myosin V (also referred to as myosin 5a and myo 5a), and recycling vesicles) are also present in nerve terminals. Therefore, the effects of thyroid hormone on synaptic vesicle recycling in the presynaptic nerve terminal were examined using myo5a-dependent synaptic vesicle (SV) recycling in cultured cerebellar granule neurons. In these experiments, rat granule neurons were grown on laminin-coated coverslips in the absence or presence of hormone and synaptic vesicle recycling was examined using FM1-43 (a styryl dye used in the art for studying endocytosis and exocytosis, e.g., in synaptic vesicle uptake and release assays; Molecular Probes, Inc. Eugene, Oreg.). […] In contrast, granule neurons grown in thyroid hormone supplemented medium released only 15-20% of the FM1-43 after six minutes of incubation and the hormone specificity of retention of FM1-43 in the “reserve pool” was identical to that determined for myo5a-dependent, endocytosis of p29 vesicles (D2p29 vesicles) in astrocytes.
Cerebellar granule neurons were examined because thyroid hormone has a profound influence on granule neuron viability during cerebellar maturation (Xiao and Nikodem, 1998, Front. Biosci. 3: A52-57; Rabie et al., 1980, Brain Res. 190:409-414), and because of the effects of the loss of myo5a on synaptic vesicle homeostasis (Bridgman, 1999, J. Cell Biol. 146:1045-1060). […]
Experiments were conducted to determine whether synaptic vesicle endocytosis could be altered by the hormone status of the neuron. […] The dye was then removed and the number, intensity and retention of the FM1-43 in random nerve terminals immediately after washing and after six minutes of autonomous activity were analyzed in paraformaldehyde fixed cells (Ryan, 1999, J. Neurosci.: 19:1317-1323). Fluorescence in single nerve terminals (ROI=7×7 pixels) and in an adjacent segment of the neuronal fiber were measured for 40-45 individual nerve terminals. […] Fluorescence intensity was determined using NIH Image software. The total FM1-43 fluorescence in a nerve terminal represents the sum of the dye-loaded synaptic vesicles in the readily releasable and the reserve pools.
By allowing recurrent activity, the FM1-43 filled synaptic vesicles present in the readily releasable pool will be progressively depleted. […] By measuring the total FM1-43 content in random nerve terminals immediately after loading and at 30 second intervals for six minutes of spontaneous activity, the influence of hormones on the distribution of recycling synaptic vesicles between the readily releasable and reserve pools was estimated.

**Q.** Which “retention of recycling synaptic vesicles” value ([1]; 10 nM hormone, continuous stimulation by 50 mM KCl) does the source give for `N[C@@H](Cc1cc(I)c(Oc2ccc(O)c(I)c2)c(I)c1)C(=O)O` [T3, 3,5, 3′-triiodothyronine] here?
**A.** no effect

**Q.** And the “p29^GFP vesicle binding to F-actin, dose-response” value ([2]; 0-100 nM, below the highest concentration)?
**A.** did not increase

**Q.** What about the “increase in p29^GFP vesicle binding to F-actin” value ([2]; 100 nM, highest concentration of hormone used) of the same molecule?
**A.** 10-20%

**Q.** And the “endocytosed FM1-43 released” value ([3]; after three minutes of spontaneous activity)?
**A.** > 80%

**Q.** What about the “uptake of FM1-43” value ([3]; immediately after loading) of the same molecule?
**A.** No differences

**Q.** How did the “increase of the t1/2 of FM1-43 retention” value ([1]; expression from Ad5 construct (MOI=10), T4 supplemented medium) turn out when “Δ myosin ^1830: myosin V tail deletion mutant, residues 1830-1852; vesicle-binding domain (NPSSLALETIQIPASLGLGFIAR)” was run?
**A.** 50%

B1: A myosin V middle: myosin V truncation mutant corresponding to amino acids 504-1307 (protein)
chain: GILDLLDEECKMPKGTDDTWAQKLYNTHLNKCALFEKPRMSNKAFIIKHFADKVEYQCEGFLEKNKDTVFEEQIKVLKSSKFKMLPELFQDDEKAISPTSATSSGRTPLTRVPVKPTKGRPGQTAKEHKKTVGHQFRNSLHLLMETLNATTPHYVRCIKPNDFKFPFTFDEKRAVQQLRACGVLETIRISAAGFPSRWTYQEFFSRYRVLMKQKDVLGDRKQTCKNVLEKLILDKDKYQFGKTKIFFRAGQVAYLEKLRADKLRAACIRIQKTIRGWLLRKRYLCMQRAAITVQRYVRGYQARCYAKFLRRTKAATTIQKYWRMYVVRRRYKIRRAATIVIQSYLRGYLTRNRYRKILREYKAVIIQKRVRGWLARTHYKRTMKAIVYLQCCFRRMMAKRELKKLKIEARSVERYKKLHIGMENKIMQLQRKVDEQNKDYKCLMEKLTNLEGVYNSETEKLRNDVERLQLSEEEAKVATGRVLSLQEEIAKLRKDLEQTRSEKKSIEERADKYKQETDQLVSNLKEENTLLKQEKETLNHRIVEQAKEMTETMERKLVEETKQLELDLNDERLRYQNLLNEFSRLEERYDDLKEEMTLMLNVPKPGHKRTDSTHSSNESEYTFSSEFAETEDIAPRTEEPIEKKVPLDMSLFLKLQKRVTELEQEKQLMQDELDRKEEQVFRSKAKEEERPQIRGAELEYESLKRQELESENKKLKNELNELRKALSEKSAPEVTAPGAPAYRVLMEQLTSVSEELDVRKEEVLILRSQLVSQKEAIQPKDDKNTMTDSTILLEDVQKMKDKGE
**Q.** For B1, which “competition with native myosin V for T4-dependent binding of p29 to F-actin” value [2] is on record?
**A.** did not compete

B2: myosin V tail lacking the last 44 residues (residues 953-1803): myosin V tail truncation mutant, residues 953-1803 (protein)
chain: LEGVYNSETEKLRNDVERLQLSEEEAKVATGRVLSLQEEIAKLRKDLEQTRSEKKSIEERADKYKQETDQLVSNLKEENTLLKQEKETLNHRIVEQAKEMTETMERKLVEETKQLELDLNDERLRYQNLLNEFSRLEERYDDLKEEMTLMLNVPKPGHKRTDSTHSSNESEYTFSSEFAETEDIAPRTEEPIEKKVPLDMSLFLKLQKRVTELEQEKQLMQDELDRKEEQVFRSKAKEEERPQIRGAELEYESLKRQELESENKKLKNELNELRKALSEKSAPEVTAPGAPAYRVLMEQLTSVSEELDVRKEEVLILRSQLVSQKEAIQPKDDKNTMTDSTILLEDVQKMKDKGEIAQAYIGLKETNRLLESQLQSQKRSHENEAEALRGEIQSLKEENNRQQQLLAQNLQLPPEARIEASLQHEITRLTNENLYFEELYADDPKKYQSYRISLYKRMIDLMEQLEKQDKTVRKLKKQLKVFAKKIGELEVGQMENISPGQIIDEPIRPVNIPRKEKDFQGMLEYKREDEQKLVKNLILELKPRGVAVNLIPGLPAYILFMCVRHADYLNDDQKVRSLLTSTINSIKKVLKKRGDDFETVSFWLSNTCRFLHCLKQYSGEEGFMKHNTSRQNEHCLTNFDLAEYRQVLSDLAIQIYQQLVRVLENILQPMIVSGMLEHETIQGVSGVKPTGLRKRTSSIADEGTYTLDSILRQLNSFHSVMCQHGMDPELIKQVVKQMFYIVGAITLNNLLLRKDMCSWSKGMQIRYNVSQLEEWLRDKNLMNSGAKETLEPLIQAAQLLQVKKKTDDDAEAICSMCNALTTAQIVKVLNLYTPVNEFEERVSVSFIRTIQ
**Q.** B2 was tested. Which “competition with native myosin V for T4-dependent binding of p29 to F-actin” value [2] did it give?
**A.** did not compete
